Source: PMC9995496, “A screen for MeCP2-TBL1 interaction inhibitors using a luminescence-based assay” (Scientific Reports, 2023)
Where two headings read alike, the source gives them in different places.

Test system: PRKACA-PRKAR2A interaction (SmBiT-PRKACA / LgBiT-PRKAR2A), protein kinase A
Set-up: NanoLuc complementation counter-screen in cell extract, PRKACA with PRKAR2A, loss of luminescence, detects NanoLuc interference
Conditions: 0.5 h, 20 µM, inhibitor
[1] = counter-screen for NanoLuc interference
[2] = counter-screen for NanoLuc interference, Inh (PKA)

C=CC(=O)Nc1cccc(Oc2nc(Nc3ccc(N4CCN(C)CC4)cc3)ncc2Cl)c1 [UM0142142:01, WZ3146]
Inh (PKA) [1]: 33.46%

CN(C)C/C=C/C(=O)Nc1ccc(C(=O)Nc2cccc(Nc3ncc(Cl)c(-c4c[nH]c5ccccc45)n3)c2)cc1 [UM0142143:01, THZ1]
Inh (PKA) [1]: 81.51%

C[C@@H]1COCCN1c1cc(=O)n2c(n1)N(Cc1cncc(Cl)c1)[C@H](C(F)(F)F)CC2 [UM0142144:01, SAR405]
Inh (PKA) [1]: 7.192%

O=C1N=C(NCc2cccs2)S/C1=C\c1ccc2ncccc2c1 [UM0142145:01, Ro 3306]
Inh (PKA) [1]: 23.14%

CN1CCC(Nc2nc(Nc3ccc(Oc4ccccc4)cc3)c3c(=O)[nH]cc(Br)c3n2)CC1 [UM0142146:01, G-749]
Inh (PKA) [1]: 37.05%

Cc1nc(Nc2cnn(C3CCNCC3)c2)nc2c1N(C)C(=O)c1cc3ccccc3cc1N2C [UM0142147:01, HTH-01-015]
Inh (PKA) [1]: 10.88%

CN(Cc1cccc(-c2ccncc2)c1)C(=O)Oc1ccc(-c2ccc(C(N)=O)cc2)cc1 [UM0142148:01, WWL 70]
Inh (PKA): 11.8%

CNCc1ccc(-c2[nH]c3cc(F)cc4c3c2CCNC4=O)cc1 [UM0142149:01, Rucaparib (free base)]
Inh (PKA) [2]: 8.491%

COC(=O)C[C@H](NC(=O)[C@H](C)NC(=O)[C@@H](NC(=O)[C@H](Cc1ccc(O)cc1)NC(=O)OCc1ccccc1)C(C)C)C(=O)CF [UM0142151:01, Z-YVAD-FMK]
Inh (PKA) [1]: 2.926%

Cc1nn(C)c2c1C(c1ccc(C(F)(F)F)cc1)C(C#N)=C(N)O2 (stereo not shown) [UM0142152:01, BQU57]
Inh (PKA) [1]: 14.94%

O=CC[C@@H](O)[C@H](O)[C@H](O)CO [UM0142158:01, 2-Deoxy-D-glucose]
Inh (PKA) [1]: 1.529%

Cc1c(-c2ccnn2C)cc(C(=O)NCc2ccc(S(C)(=O)=O)cn2)c(=O)n1-c1cccc(C(F)(F)F)c1 [UM0142161:01, Alvelestat]
Inh (PKA) [1]: 0.5125%

O=C(O)c1ccc(-c2c[nH]c3ncc(-c4ccccc4)cc23)cc1C1CCCC1 [UM0142163:01, GSK 650394]
Inh (PKA) [1]: 18.1%

CCOC(=O)[C@H](C)C[C@@H](Cc1ccc(-c2ccccc2)cc1)NC(=O)CCC(=O)O [UM0142165:01, AHU-377(Sacubitril)]
Inh (PKA) [2]: 9.484%

COc1ccc(-c2ccccc2)cc1NS(=O)(=O)c1cc(Cl)cc(Cl)c1O [UM0142166:01, BMS-303141]
Inh (PKA) [1]: 65.56%

COc1cccc(OCCCN)c1-c1cc(Nc2cnc(C#N)cn2)n[nH]1 [UM0142169:01, LY2606368]
Inh (PKA) [1]: 14.04%

C=CC(=O)Nc1cc(Nc2nccc(-c3cn(C)c4ccccc34)n2)c(OC)cc1N(C)CCN(C)C [UM0142170:01, AZD-9291]
Inh (PKA) [1]: 6.598%

CC(C)Nc1cc(-c2c[nH]c(C(=O)N[C@H](CO)c3cccc(Cl)c3)c2)c(Cl)cn1 [UM0142171:01, VRT752271]
Inh (PKA) [1]: 17.24%

Cc1cc(C(N)=O)ccc1-n1c(CCC(=O)O)ccc1-c1ccc(-n2ccnc2)cc1 [UM0142172:01, N6022]
Inh (PKA) [1]: 4.784%

COc1cc(NC(=O)Nc2cccc(CNC(=O)O[C@H]3CCOC3)c2)ccc1-c1cnco1 [UM0142173:01, Merimepodib]
Inh (PKA) [1]: 28.05%

Cc1cc(-c2nc(-c3ccc(OC(F)(F)F)cc3)no2)nn1Cc1ccnc(N2CCN(C3CC3)CC2)c1 [UM0142175:01, BAY 87-2243]
Inh (PKA) [1]: 5.354%

COc1cc2c(NC3CCN(CC4CCCCC4)CC3)nc(N3CCCN(C(C)C)CC3)nc2cc1OCCCN1CCCCC1 [UM0142178:01, UNC 0631]
Inh (PKA) [1]: 0.9058%

CCn1c(=O)c(-c2ccc(-c3cncs3)cc2Cl)cc2cnc(Nc3ccc(N4CCN(C)CC4)cc3)nc21 [UM0142182:01, FRAX597]
Inh (PKA) [1]: 16.18%

O=C(NCc1ccncc1)C12CC3CC(C1)CC(c1ccc(Cl)cc1)(C3)C2 [UM0142183:01, ABC294640]
Inh (PKA) [1]: 8.98%

N#Cc1cc(-c2n[nH]c(-c3ccncc3)n2)ccn1 [UM0142184:01, Topiroxostat]
Inh (PKA) [1]: 3.047%
